Numbered stars: 1 amine (or outer) side, 2 acyl side, 3 side chain; on linkers, the order of the positions; unused ones are H or OH. Bridge positions count the residues as written; N and C are the ends. Square brackets hold non-standard residues; d marks the D form. Peptide text beside a SMILES is read from it. hTyr = N[CH](CCc1ccc(O)cc1)C(=O)O; NMeA = CN[CH](C)C(=O)O; CO = O=C([*:1])[*:2]
What was measured:
Type in all cases: biochemical
[1] = biological target: FIIa (Homo sapiens, UniProt P00734); experiment: Protease/carboxypeptidase panel: FIIa; conditions: read-out: Ki FIIa
Source text: Supplement srep32958-s1.docx, table 1: Table S1: Activities of Anabaenopeptins against a panel of proteases/carboxypeptidases. | column: FIIa

[2] = biological target: T1, CPA (Homo sapiens, UniProt P15085); experiment: Protease/carboxypeptidase panel: CPA
T1 sequence (P15085 111-419): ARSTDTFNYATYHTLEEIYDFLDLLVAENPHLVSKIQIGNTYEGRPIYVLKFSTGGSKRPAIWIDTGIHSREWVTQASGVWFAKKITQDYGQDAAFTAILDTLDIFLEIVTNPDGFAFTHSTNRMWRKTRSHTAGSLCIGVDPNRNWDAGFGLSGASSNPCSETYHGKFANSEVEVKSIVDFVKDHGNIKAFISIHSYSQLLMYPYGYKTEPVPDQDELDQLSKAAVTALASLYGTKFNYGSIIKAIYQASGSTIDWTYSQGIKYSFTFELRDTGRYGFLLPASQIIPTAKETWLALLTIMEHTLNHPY
Source text: Supplement srep32958-s1.docx, table 1: Table S1: Activities of Anabaenopeptins against a panel of proteases/carboxypeptidases. | column: CPA

[3] = biological target: T2, CPN (Homo sapiens, UniProt P15169); experiment: Protease/carboxypeptidase panel: CPN; conditions: read-out: IC50 CPN
T2 sequence (P15169 21-458): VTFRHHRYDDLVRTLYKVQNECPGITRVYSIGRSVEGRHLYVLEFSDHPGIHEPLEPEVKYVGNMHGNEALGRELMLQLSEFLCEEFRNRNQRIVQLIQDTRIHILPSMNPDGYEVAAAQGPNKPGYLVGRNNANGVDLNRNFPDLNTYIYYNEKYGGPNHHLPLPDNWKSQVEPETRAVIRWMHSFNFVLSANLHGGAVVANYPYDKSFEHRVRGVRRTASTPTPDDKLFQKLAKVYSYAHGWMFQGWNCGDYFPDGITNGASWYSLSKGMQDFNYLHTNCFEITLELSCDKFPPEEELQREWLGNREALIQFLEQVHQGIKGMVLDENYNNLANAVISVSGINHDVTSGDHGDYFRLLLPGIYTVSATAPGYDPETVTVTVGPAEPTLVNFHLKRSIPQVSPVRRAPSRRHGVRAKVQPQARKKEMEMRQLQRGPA
T2 sequence (P22792 22-545 partner): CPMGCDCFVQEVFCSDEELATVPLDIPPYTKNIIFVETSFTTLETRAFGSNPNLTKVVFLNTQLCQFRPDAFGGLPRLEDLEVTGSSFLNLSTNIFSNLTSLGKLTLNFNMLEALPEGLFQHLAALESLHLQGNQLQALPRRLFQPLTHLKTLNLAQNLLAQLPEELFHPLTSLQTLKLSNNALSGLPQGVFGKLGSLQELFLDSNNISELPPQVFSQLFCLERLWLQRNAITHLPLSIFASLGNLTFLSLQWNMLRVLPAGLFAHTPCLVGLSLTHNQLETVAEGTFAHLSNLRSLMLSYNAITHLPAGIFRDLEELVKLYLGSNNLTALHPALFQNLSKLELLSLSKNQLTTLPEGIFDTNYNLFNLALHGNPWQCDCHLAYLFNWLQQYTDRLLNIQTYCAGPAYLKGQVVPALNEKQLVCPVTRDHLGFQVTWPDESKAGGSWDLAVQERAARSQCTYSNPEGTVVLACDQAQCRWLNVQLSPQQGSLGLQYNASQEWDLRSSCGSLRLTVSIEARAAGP
Source text: Supplement srep32958-s1.docx, table 1: Table S1: Activities of Anabaenopeptins against a panel of proteases/carboxypeptidases. | column: CPN

[4] = biological target: FXa (Homo sapiens, UniProt P00742); experiment: Protease/carboxypeptidase panel: FXa; conditions: 100 µM; read-out: Inh.@100µM in % FXa
Chain of FXa (P00742 235-488 limits assumed): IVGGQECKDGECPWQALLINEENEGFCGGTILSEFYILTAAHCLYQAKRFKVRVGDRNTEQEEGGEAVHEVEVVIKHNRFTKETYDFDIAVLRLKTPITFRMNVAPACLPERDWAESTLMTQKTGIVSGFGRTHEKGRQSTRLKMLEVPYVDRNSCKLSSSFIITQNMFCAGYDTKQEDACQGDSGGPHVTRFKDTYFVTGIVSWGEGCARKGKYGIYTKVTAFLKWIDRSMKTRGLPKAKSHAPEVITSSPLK
Chain of FXa (P00742 41-179 partner limits assumed): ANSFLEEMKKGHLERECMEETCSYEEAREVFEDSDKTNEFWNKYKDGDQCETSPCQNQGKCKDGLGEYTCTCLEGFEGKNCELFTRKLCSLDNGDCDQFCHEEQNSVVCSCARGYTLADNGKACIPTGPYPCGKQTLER
Source text: Supplement srep32958-s1.docx, table 1: Table S1: Activities of Anabaenopeptins against a panel of proteases/carboxypeptidases. | column: FXa

[5] = biological target: T3, FVIIa (Homo sapiens, UniProt P08709); experiment: Protease/carboxypeptidase panel: FVIIa; conditions: read-out: Inh.@100µM in % FVIIa
T3 sequence (P08709 213-466 limits assumed): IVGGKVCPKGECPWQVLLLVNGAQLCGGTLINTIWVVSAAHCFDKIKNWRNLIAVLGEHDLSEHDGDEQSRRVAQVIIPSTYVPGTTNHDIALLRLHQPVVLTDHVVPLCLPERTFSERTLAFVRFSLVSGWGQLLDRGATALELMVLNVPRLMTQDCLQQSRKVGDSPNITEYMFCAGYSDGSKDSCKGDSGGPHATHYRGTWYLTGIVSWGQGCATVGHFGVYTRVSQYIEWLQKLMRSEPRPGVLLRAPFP
T3 sequence (P08709 61-212 partner limits assumed): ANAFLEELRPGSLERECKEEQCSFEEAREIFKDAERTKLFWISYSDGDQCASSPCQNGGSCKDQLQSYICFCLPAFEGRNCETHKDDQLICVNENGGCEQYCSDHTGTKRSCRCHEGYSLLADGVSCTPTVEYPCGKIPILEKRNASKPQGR
Source text: Supplement srep32958-s1.docx, table 1: Table S1: Activities of Anabaenopeptins against a panel of proteases/carboxypeptidases. | column: FVIIa

Row | SMILES | Ki [1] [µM] | inhibition at 100 µM ([2]; 100 µM, read-out: Inh.@100µM in % CPA) [%] | IC50 [3] [µM] | inhibition at 100 µM [4] [%] | inhibition at 100 µM [5] [%] | IC50 [2] [µM]
1 | CC(C)C1NC(=O)C(NC(=O)NC(CCCCN)C(=O)O)CCCCNC(=O)C(Cc2ccccc2)NC(=O)C(C)N(C)C(=O)C(CCc2ccc(O)cc2)NC1=O (stereo not shown) [Compound 2, Anabaenopeptin C] ({Lys-CO}-KV[hTyr][NMeA]F; lactam 1-C; configuration not given here) | 6 | 31 | 5.7 | 42 | 36 | 
2 | CC(C)[C@@H]1NC(=O)[C@H](NC(=O)N[C@@H](CCCNC(=N)N)C(=O)O)CCCCNC(=O)[C@H](Cc2ccccc2)NC(=O)[C@H](C)N(C)C(=O)[C@H](CCc2ccc(O)cc2)NC1=O [Compound 1, Anabaenopeptin B] ({Arg-CO}-[dK]V[hTyr][NMeA]F; lactam 1-C) | 1.6 |  | 5.4 | 22 | 35 | 3.9

Reference: article PMC5015106 (Scientific Reports, 2016)
